PubChem BioAssay AID2060512 (Molecular Pharmacology Branch, DTP, NCI, 2025)

Tested on: 186277-243-T-J2-PDC complex spheroid viability
Assay: Anticancer human tumor 186277-243-T-J2-PDC patient-derived colon adenocarcinoma cell line growth inhibition [GQUAD]
Settings: for IC50: curve of first compound; for viability, T/C: stronger effect = lower value
In short: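 Tumor cells were grown as complex spheroids with HUVEC endothelial cells and mesenchymal stem cells as stroma. G-quadruplex stabilizers were combined with targeted agents over half-log dilutions from near the clinical Cmax, or from 10 microM.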

[1] = second compound 0.0316 µM, first compound 0.0316 µM
[2] = second compound 0.0316 µM, first compound 0.1 µM
[3] = second compound 0.0316 µM, first compound 0.316 µM
[4] = second compound 0.0316 µM, first compound 1 µM
[5] = second compound 0.0316 µM, first compound 3.16 µM
[6] = second compound 0.0316 µM, first compound 10 µM
[7] = second compound 0.1 µM, first compound 0.0316 µM
[8] = second compound 0.1 µM, first compound 0.1 µM
[9] = second compound 0.1 µM, first compound 0.316 µM
[10] = second compound 0.1 µM, first compound 1 µM
[11] = second compound 0.1 µM, first compound 3.16 µM
[12] = second compound 0.1 µM, first compound 10 µM
[13] = second compound 0.316 µM, first compound 0.0316 µM
[14] = second compound 0.316 µM, first compound 0.1 µM
[15] = second compound 0.316 µM, first compound 0.316 µM
[16] = second compound 0.316 µM, first compound 1 µM
[17] = second compound 0.316 µM, first compound 3.16 µM
[18] = second compound 0.316 µM, first compound 10 µM
[19] = second compound 1 µM, first compound 0.0316 µM
[20] = second compound 1 µM, first compound 0.1 µM
[21] = second compound 1 µM, first compound 0.316 µM
[22] = second compound 1 µM, first compound 1 µM
[23] = second compound 1 µM, first compound 3.16 µM
[24] = second compound 1 µM, first compound 10 µM
[25] = second compound 3.16 µM, first compound 0.0316 µM
[26] = second compound 3.16 µM, first compound 0.1 µM
[27] = second compound 3.16 µM, first compound 0.316 µM
[28] = second compound 3.16 µM, first compound 1 µM
[29] = second compound 3.16 µM, first compound 3.16 µM
[30] = second compound 3.16 µM, first compound 10 µM
[31] = second compound 10 µM, first compound 0.0316 µM
[32] = second compound 10 µM, first compound 0.1 µM
[33] = second compound 10 µM, first compound 0.316 µM
[34] = second compound 10 µM, first compound 1 µM
[35] = second compound 10 µM, first compound 3.16 µM
[36] = second compound 10 µM, first compound 10 µM
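Further: spheroids exposed to drugs for 7 days.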
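Wherever viability, T/C is given: 100% = DMSO vehicle control viability.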

## CC(C)(O)C1CCC(Nc2ccc3ncc(-c4cccc(C(F)(F)F)c4)n3n2)CC1 (stereo unspecified) + CN(C)c1ccc(Nc2c3ccc(NC(=O)CCN4CCCC4)cc3nc3cc(NC(=O)CCN4CCCC4)ccc23)cc1
Second compound 0.0316 µM
  IC50: 2.7 µM
Second compound 0.1 µM
  IC50: 4.05 µM
Second compound 0.316 µM
  IC50: 2.78 µM
Second compound 1 µM
  IC50: 5.19 µM
Second compound 3.16 µM
  IC50: 2.89 µM
Second compound 10 µM
  IC50: 3.53 µM
[1]
  viability, T/C: 103%
[2]
  viability, T/C: 84.8%
[3]
  viability, T/C: 113%
[4]
  viability, T/C: 92.4%
[5]
  viability, T/C: 42.7%
[6]
  viability, T/C: 44%
[7]
  viability, T/C: 98.8%
[8]
  viability, T/C: 89.1%
[9]
  viability, T/C: 91.4%
[10]
  viability, T/C: 92.1%
[11]
  viability, T/C: 51.6%
[12]
  viability, T/C: 44.1%
[13]
  viability, T/C: 107%
[14]
  viability, T/C: 92.7%
[15]
  viability, T/C: 108%
[16]
  viability, T/C: 92.3%
[17]
  viability, T/C: 44.9%
[18]
  viability, T/C: 36%
[19]
  viability, T/C: 93.1%
[20]
  viability, T/C: 99.5%
[21]
  viability, T/C: 85.7%
[22]
  viability, T/C: 92%
[23]
  viability, T/C: 56.2%
[24]
  viability, T/C: 41.7%
[25]
  viability, T/C: 93.1%
[26]
  viability, T/C: 93.5%
[27]
  viability, T/C: 108%
[28]
  viability, T/C: 81.6%
[29]
  viability, T/C: 48.2%
[30]
  viability, T/C: 27.6%
[31]
  viability, T/C: 133%
[32]
  viability, T/C: 107%
[33]
  viability, T/C: 96.7%
[34]
  viability, T/C: 98.2%
[35]
  viability, T/C: 41.4%
[36]
  viability, T/C: 22.8%

## O=C(c1cc(Cc2n[nH]c(=O)c3ccccc23)ccc1F)N1CCN(C(=O)C2CC2)CC1 + CN(C)c1ccc(Nc2c3ccc(NC(=O)CCN4CCCC4)cc3nc3cc(NC(=O)CCN4CCCC4)ccc23)cc1
Second compound 0.0316 µM
  IC50: > 10 µM
Second compound 0.1 µM
  IC50: > 10 µM
Second compound 0.316 µM
  IC50: > 10 µM
Second compound 1 µM
  IC50: > 10 µM
Second compound 3.16 µM
  IC50: > 10 µM
Second compound 10 µM
  IC50: > 10 µM
[1]
  viability, T/C: 116%
[2]
  viability, T/C: 122%
[3]
  viability, T/C: 115%
[4]
  viability, T/C: 93.5%
[5]
  viability, T/C: 81.8%
[6]
  viability, T/C: 70.2%
[7]
  viability, T/C: 117%
[8]
  viability, T/C: 118%
[9]
  viability, T/C: 115%
[10]
  viability, T/C: 99%
[11]
  viability, T/C: 103%
[12]
  viability, T/C: 53.5%
[13]
  viability, T/C: 97.7%
[14]
  viability, T/C: 111%
[15]
  viability, T/C: 102%
[16]
  viability, T/C: 95.1%
[17]
  viability, T/C: 111%
[18]
  viability, T/C: 63.4%
[19]
  viability, T/C: 98.2%
[20]
  viability, T/C: 100%
[21]
  viability, T/C: 105%
[22]
  viability, T/C: 110%
[23]
  viability, T/C: 89.9%
[24]
  viability, T/C: 75.9%
[25]
  viability, T/C: 90.4%
[26]
  viability, T/C: 109%
[27]
  viability, T/C: 95.3%
[28]
  viability, T/C: 100%
[29]
  viability, T/C: 78.7%
[30]
  viability, T/C: 64.5%
[31]
  viability, T/C: 105%
[32]
  viability, T/C: 116%
[33]
  viability, T/C: 120%
[34]
  viability, T/C: 111%
[35]
  viability, T/C: 95.9%
[36]
  viability, T/C: 54.9%

## O=C(NO)c1cnc(N2CCN(S(=O)(=O)c3ccc4ccccc4c3)CC2)nc1 + Cc1cnc(CNC(=O)c2c(=O)c3ccc(N4CCCN(C)CC4)nc3n3c2sc2ccccc23)cn1
Second compound 0.0316 µM
  IC50: 0.148 µM
Second compound 0.1 µM
  IC50: 0.102 µM
Second compound 0.316 µM
  IC50: 0.0619 µM
Second compound 1 µM
  IC50: < 0.0316 µM
Second compound 3.16 µM
  IC50: < 0.0316 µM
Second compound 10 µM
  IC50: < 0.0316 µM
[1]
  viability, T/C: 96.1%
[2]
  viability, T/C: 71.1%
[3]
  viability, T/C: 9.06%
[4]
  viability, T/C: 0.26%
[5]
  viability, T/C: 0.12%
[6]
  viability, T/C: 0.12%
[7]
  viability, T/C: 66.5%
[8]
  viability, T/C: 50.9%
[9]
  viability, T/C: 9.09%
[10]
  viability, T/C: 0.28%
[11]
  viability, T/C: 0.09%
[12]
  viability, T/C: 0.1%
[13]
  viability, T/C: 64.5%
[14]
  viability, T/C: 39.7%
[15]
  viability, T/C: 8.31%
[16]
  viability, T/C: 0.44%
[17]
  viability, T/C: 0.08%
[18]
  viability, T/C: 0.1%
[19]
  viability, T/C: 40.2%
[20]
  viability, T/C: 34.2%
[21]
  viability, T/C: 8.56%
[22]
  viability, T/C: 0.11%
[23]
  viability, T/C: 0.08%
[24]
  viability, T/C: 0.1%
[25]
  viability, T/C: 33.3%
[26]
  viability, T/C: 24.1%
[27]
  viability, T/C: 0.15%
[28]
  viability, T/C: 0.1%
[29]
  viability, T/C: 0.1%
[30]
  viability, T/C: 0.12%
[31]
  viability, T/C: 34.2%
[32]
  viability, T/C: 19.8%
[33]
  viability, T/C: 0.24%
[34]
  viability, T/C: 0.14%
[35]
  viability, T/C: 0.16%
[36]
  viability, T/C: 0.18%
